{
  "source": "patent US20100105770A1",
  "about": "“Therapeutic delivery of carbon monoxide” (priority 2006, published 2010)",
  "key": {"[1]": {"tested_on": "deoxymyoglobin (deoxy-Mb)", "experiment": "Release of CO from metal carbonyl complexes (myoglobin assay / CO electrode)", "assay_type": "physicochemical", "procedure": "The release of CO from metal carbonyl complexes was assessed spectrophotometrically by measuring the conversion of deoxymyoglobin (deoxy-Mb) to carbonmonoxymyoglobin (MbCO). MbCO has a distinctive absorption spectrum between 500 and 600 nm, and changes at 540 nm were used to quantify the amount of CO liberated. Myoglobin solutions were prepared freshly by dissolving a known concentration of the protein in phosphate buffer, which was also made up to a known concentration and pH. Sodium dithionite (0.1%) was added to convert myoglobin to deoxy-Mb prior to each reading. The CORM was dissolved in the solvent specified in the solubility column of the table of FIGS. 1a-1k, before addition to the myoglobin solution.\nThe release of CO from metal carbonyl complexes was also detected using a prototype electrode purchased from World Precision Instrument (Stevenage, Herts, UK). The CO electrode is a membrane-covered amperometric sensor which has been designed on a basic operating principle similar to the nitric oxide (NO) sensor. In fact, the CO sensor can be connected to the ISO-NO Mark II meter for detection of the current signals providing that the poise potential is set to a different value (900 mV for CO as opposed to 860 mV for NO). In principle, CO diffuses through the gas permeable membrane and is then oxidized to CO2 on the working electrode. This oxidation will create a current whose magnitude can be related directly to the concentration of CO in solution. The CO sensor was used to generate standard curves and calculate the rates of CO release from a CORM compound at different pHs and temperatures. The electrode was immersed into the solutions at different pHs and equilibrated for 30 min prior to addition of the CORM compound. The experiments were maintained at the desired temperature using a Grant W6 thermostat (Cambridge). This method is described in the applicants' earlier publication WO 2005/114161.\nSlow release rates (half-life >200 minutes) are indicated for the comparative compounds, while rapid release rates (half-life <50 minutes) were found for compounds within the invention. […] Compounds having three carbonyl ligands released CO slowly, as did compounds in which a carbon or a nitrogen atom of the ligand bond to the manganese. Slow release is also found for the compound (CORM 325) having Mn—Mn bonding."}, "[2]": {"experiment": "Solubility information", "assay_type": "physicochemical", "description": "Uncharged complexes, such as CORM 378, can be made water soluble by the presence of suitable ligands."}, "[3]": {"tested_on": "RAW264.7 macrophages", "experiment": "Anti-inflammatory action in LPS-stimulated RAW264.7 macrophages (nitrite, Griess method)", "assay_type": "cell-based, mouse", "details": "24 h, 10, 50 or 100 μM compound, LPS 1 μg/ml", "procedure": "(2) The anti-inflammatory action was measured in RAW264.7 macrophages incubated for 24 h with 10, 50 or 100 μM of each compound in the presence or absence of Lipopolysaccharide (LPS) (1 μg/ml). Nitrite was used as an indicator of inflammation. * indicates a reduction in inflammation detected at 100 μM; ** indicates a reduction in inflammation detected at 50 μM; *** indicates a reduction in inflammation detected at 10 μM; “None” indicates there was no effect of the compound on inflammation; N.P. indicates assay not performed.\nMurine RAW264.7 monocyte macrophages were purchased from the European Collection of Cell Cultures (Salisbury, Wiltshire, UK) and cultured in Dulbecco's modified Eagle's medium (DMEM) supplemented' with 10% fetal bovine serum, 2 mM L-glutamine, 100 units ml^−1 penicillin and 0.1 mg ml^−1 streptomycin. […] Macrophages were exposed for 24 hr to LPS (1 μg ml^−) in the presence or absence of CORMs (10, 50 and 100 μM) and nitrite levels and cytotoxicity were determined at the end of the incubation. Nitrite levels were determined using the Griess method as previously described (Foresti et al. J. Biol. Chem. 272, 18411-18417, (1997)). […] The Griess reagent was added to each well to begin the reaction, the plate was shaken for 10 min and the absorbance read at 550 nm on a Molecular Devices VERSAmax plate reader. […]"}, "[4]": {"tested_on": "isolated aortic rings", "experiment": "Vasorelaxation of pre-contracted isolated rat aortic rings", "set-up": "species or system Sprague-Dawley rats", "details": "for Contraction of pre-contracted aortic rings after addition of compound: varying concentrations, FIG. 3(a), 3(b)", "procedure": "(3) The experiments using the isolated aortic rings were conducted to assess the extent of vasorelaxation. One hundred micromolar (100 μM) of each compound were added to a pre-contracted ring and vasorelaxation was assessed as a percentage of the initial contraction, which was expressed as good (+) or very good (++).\nVasodilatation data for CORM 371 and CORM 376 was measured as described previously by the inventors in their earlier publication, WO 2004/045599. This is described in more detail below.\nThe method for the preparation of isolated aortic rings has been previously described (Sammut et al Br J Pharmacol 125: 1437-1444, 1998; Motterlini et al Circ Res 90: E17-E24, 2002). The thoracic aorta was isolated from Sprague-Dawley rats (350-450 g) and flushed with cold Krebs-Henseleit buffer (4° C., pH 7.4) containing (in mM): 118 NaCl, 4.7 KCl, […], 1.2 MgSO4.7H2O, 22 NaHCO3, 11 Glucose, 0.03 K^+EDTA, 2.5 CaCl2 and supplemented with 10 μM indomethacin. Each aorta was trimmed of adventitial tissue and ring, sections (˜3 mm length) were produced from the mid aortic segment. The rings were then mounted between two stainless steel hooks in 9-mL organ baths containing Krebs-Henseleit buffer which was maintained at 37° C. and continuously gassed with 95% O2-5% CO2. One hook was attached to a Grass FT03 isometric force transducer whilst the other was anchored to a sledge for regulation of the resting tension of the aortic ring. The rings were initially equilibrated for 30 min under a resting tension of 2 g which was previously determined to be optimal. Continuous recording of tension was made on a Grass 7D polygraph (Grass Instruments, Quincy, Mass.) in combination with a Biopac MP100 system using AcqKnowledge™ software (Linton Instruments, Norfolk, UK). Before each protocol was carried out, rings were contracted with a standard dose of KCl (100 mM) in order to provide an internal reference and to control for variability in contractile responsiveness between tissues. The relaxation response to CORM-3 (25 μM) in the presence or absence of YC-1 (5 μM final concentration, 30 min pre-incubation) was assessed in aortic rings pre-contracted with phenylephrine (1 μmol/L)."}},
  "data": [
    {"compound": "O=[C]=[Mn]([Br])(=[C]=O)(=[C]=O)(=[C]=O)=[C]=O", "note": "[CORM 309, [MnBr(CO)5]]", "values": [
      {"measurement": "CO release rate (in words)", "setting": "[1]", "result": "much longer CO release times"}
    ]},
    {"compound": "O=[C]=[Mn]([I])(=[C]=O)(=[C]=O)(=[C]=O)=[C]=O", "note": "[CORM 310, [MnI(CO)5]]", "values": [
      {"measurement": "CO release rate (in words)", "setting": "[1]", "result": "much longer CO release times"}
    ]},
    {"compound": "[C-]#[O+].[C-]#[O+].[C-]#[O+].[C-]#[O+].[C-]#[O+].[Cl][Mn]", "note": "[CORM 318, [MnCl(CO)5]]", "values": [
      {"measurement": "CO release rate (in words)", "setting": "[1]", "result": "much longer CO release times"}
    ]},
    {"compound": "[C-]#[O+].[C-]#[O+].[C-]#[O+].[C-]#[O+].[C-]#[O+].[C-]#[O+].[C-]#[O+].[C-]#[O+].c1ccc([PH]([Mn][Mn][PH](c2ccccc2)(c2ccccc2)c2ccccc2)(c2ccccc2)c2ccccc2)cc1", "note": "[CORM 325, [Mn(CO)4(PPh3)]2]", "values": [
      {"measurement": "CO release rate (in words)", "setting": "[1]", "result": "Slow release"}
    ]},
    {"compound": "OCCN(CCO)C(=S)[S-].[C-]#[O+].[C-]#[O+].[C-]#[O+].[C-]#[O+].[Mn+]", "note": "[CORM 378, Mn(CO)4(η^2-S2CN{CH2CH2OH}2)]", "values": [
      {"measurement": "Solubility in water", "setting": "[2]", "result": "water soluble"}
    ]},
    {"compound": "C[N+](C)(C)C.O=C([O-])c1ccccc1.O=C([O-])c1ccccc1.O=C([O-])c1ccccc1.[C-]#[O+].[C-]#[O+].[C-]#[O+].[C-]#[O+].[C-]#[O+].[C-]#[O+].[Mn+].[Mn+]", "note": "[CORM 379, [Me4N][Mn2(CO)6(benzoate)3]]", "values": [
      {"measurement": "Anti-inflammatory action (nitrite as indicator of inflammation)", "setting": "[3]", "result": "did not do so"},
      {"measurement": "CO release rate (in words)", "setting": "[1]", "result": "rapid CO release"}
    ]},
    {"compound": "CC(=O)[S-].CC(=O)[S-].C[N+](C)(C)C.[C-]#[O+].[C-]#[O+].[C-]#[O+].[C-]#[O+].[Mn+]", "note": "[CORM-371, [Me4N][Mn(CO)4(thioacetate)2]]", "values": [
      {"measurement": "Vasodilator activity in the aortic rings model", "setting": "[4]", "result": "good vasodilators"},
      {"measurement": "Contraction of pre-contracted aortic rings after addition of compound", "setting": "[4]", "result": "concentration-dependent decrease in contraction"}
    ]},
    {"compound": "[K][(OC)3Mn(μ-OCOCH3)3Mn(CO)3] [CORM-376]", "values": [
      {"measurement": "Vasodilator activity in the aortic rings model", "setting": "[4]", "result": "good vasodilators"},
      {"measurement": "Dilatation in presence of glibenclimide (inhibition of ATP-dependent K+ channels)", "setting": "[4]; glibenclimide at two different concentrations, FIG. 3(c)", "result": "did not affect"},
      {"measurement": "Contraction of pre-contracted aortic rings after addition of compound", "setting": "[4]", "result": "concentration-dependent decrease in contraction"},
      {"measurement": "Vasorelaxation in presence of guanylate cyclase inhibitor ODQ", "setting": "[4]; with ODQ, FIG. 3(c)", "result": "significantly prevented"}
    ]},
    {"compound": "[Me4N][Mn(CO)4(Malonate)] [CORM 350]", "values": [
      {"measurement": "Anti-inflammatory action (nitrite as indicator of inflammation)", "setting": "[3]", "result": "did not do so"},
      {"measurement": "CO release rate (in words)", "setting": "[1]", "result": "rapid CO release"}
    ]}
  ]
}
